Measured values published in patent US20170190671A1, “BIS(ARYL)CATECHOL DERIVATIVES AS HERBICIDES” (E I DU PONT DE NEMOURS AND COMPANY, priority 2014, published 2017).

Assays:
Format in all cases: in vivo
[1] = test system: large (Lg) crabgrass (Digitaria sanguinalis); experiment: Test C postemergence; conditions: Digitaria sanguinalis, post-emergence, 336 h, Postemergence, scale 0 to 100, read-out: Plant response rating, Crabgrass, Large
Procedure, shortened: (§1)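 Greenhouse test; preemergence to seeds in loam/sand soil, or postemergence spray to 2-18 cm, 1- to 4-leaf plants in peat/vermiculite medium; compound in non-phytotoxic solvent plus surfactant. Visual rating vs controls at 13-15 d, 0 = no effect, 100 = complete control.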

[2] = test system: kochia (Kochia scoparia); experiment: Test C postemergence; conditions: Bassia scoparia, post-emergence, Postemergence, scale 0 to 100, read-out: Plant response rating, Kochia
Procedure, shortened: as §1

[3] = test system: soybean (Glycine max); experiment: Test C postemergence; conditions: Glycine max, post-emergence, Postemergence, scale 0 to 100, read-out: Plant response rating, Soybean
Procedure, shortened: as §1

[4] = test system: oilseed rape (Brassica napus); experiment: Test C postemergence; conditions: Brassica napus, post-emergence, Postemergence, scale 0 to 100, read-out: Plant response rating, Oilseed Rape
Procedure, shortened: as §1

[5] = test system: pigweed (Amaranthus retroflexus); experiment: Test C postemergence; conditions: Amaranthus retroflexus, post-emergence, 336 h, Postemergence, scale 0 to 100, read-out: Plant response rating, Pigweed
Procedure, shortened: as §1

[6] = test system: barnyardgrass (Echinochloa crus-galli); experiment: Test C postemergence; conditions: Echinochloa crus-galli, post-emergence, Postemergence, scale 0 to 100, read-out: Plant response rating, Barnyardgrass
Procedure, shortened: as §1

[7] = test system: giant foxtail (Setaria faberii); experiment: Test C postemergence; conditions: Setaria faberi, post-emergence, 336 h, Postemergence, scale 0 to 100, read-out: Plant response rating, Foxtail, Giant
Procedure, shortened: as §1

[8] = test system: waterhemp (common waterhemp, Amaranthus rudis); experiment: Test C postemergence; conditions: Amaranthus tuberculatus, post-emergence, Postemergence, scale 0 to 100, read-out: Plant response rating, Waterhemp
Procedure, shortened: as §1

[9] = test system: winter wheat (Triticum aestivum); experiment: Test C postemergence; conditions: Triticum aestivum, post-emergence, 336 h, Postemergence, scale 0 to 100, read-out: Plant response rating, Wheat
Procedure, shortened: as §1

[10] = test system: ragweed (common ragweed, Ambrosia elatior); experiment: Test C postemergence; conditions: Ambrosia artemisiifolia, post-emergence, 336 h, Postemergence, scale 0 to 100, read-out: Plant response rating, Ragweed
Procedure, shortened: as §1

[11] = test system: velvetleaf (Abutilon theophrasti); experiment: Test C postemergence; conditions: Abutilon theophrasti, post-emergence, Postemergence, scale 0 to 100, read-out: Plant response rating, Velvetleaf
Procedure, shortened: as §1

[12] = test system: johnsongrass (Sorghum halepense); experiment: Test C postemergence; conditions: Sorghum halepense, post-emergence, 336 h, Postemergence, scale 0 to 100, read-out: Plant response rating, Johnsongrass
Procedure, shortened: as §1

[13] = test system: corn (Zea mays); experiment: Test C postemergence; conditions: Zea mays, post-emergence, 336 h, Postemergence, scale 0 to 100
Procedure, shortened: as §1

[14] = test system: blackgrass (Alopecurus myosuroides); experiment: Test C postemergence; conditions: Alopecurus myosuroides, post-emergence, 336 h, Postemergence, scale 0 to 100, read-out: Plant response rating, Blackgrass
Procedure, shortened: as §1

[15] = test system: chickweed (common chickweed, Stellaria media); experiment: Test C postemergence; conditions: Stellaria media, post-emergence, Postemergence, scale 0 to 100, read-out: Plant response rating, Chickweed
Procedure, shortened: as §1

[16] = test system: galium (catchweed bedstraw, Galium aparine); experiment: Test C postemergence; conditions: Galium, post-emergence, 336 h, Postemergence, scale 0 to 100, read-out: Plant response rating, Galium
Procedure, shortened: as §1

[17] = test system: yellow nutsedge (Cyperus esculentus); experiment: Test C postemergence; conditions: Cyperus, post-emergence, 336 h, Postemergence, scale 0 to 100, read-out: Plant response rating, Nutsedge, Yellow
Procedure, shortened: as §1

[18] = test system: lambsquarters (Chenopodium album); experiment: Test C postemergence; conditions: Chenopodium album, post-emergence, 336 h, Postemergence, scale 0 to 100, read-out: Plant response rating, Lambsquarters
Procedure, shortened: as §1

[19] = test system: morningglory (Ipomoea coccinea); experiment: Test C postemergence; conditions: Ipomoea, post-emergence, 336 h, Postemergence, scale 0 to 100, read-out: Plant response rating, Morningglory
Procedure, shortened: as §1

[20] = test system: pigweed (Amaranthus retroflexus); experiment: Test C preemergence; conditions: Amaranthus retroflexus, pre-emergence, 336 h, scale 0 to 100, read-out: Plant response rating, Pigweed
Procedure, shortened: as §1

[21] = test system: johnsongrass (Sorghum halepense); experiment: Test C preemergence; conditions: Sorghum halepense, pre-emergence, 336 h, scale 0 to 100, read-out: Plant response rating, Johnsongrass
Procedure, shortened: as §1

[22] = test system: morningglory (Ipomoea coccinea); experiment: Test C preemergence; conditions: Ipomoea, pre-emergence, 336 h, scale 0 to 100, read-out: Plant response rating, Morningglory
Procedure, shortened: as §1

## Fc1cccc(Oc2ncc(Cl)cn2)c1Oc1ncc(Cl)cn1 [Compound 21, 2,2′-[[3-fluoro-1,2-phenylene]bis(oxy)]bis[5-chloropyrimidine]]
[1]; 16 g ai/ha
  pest or weed control at 16 g/ha: 5%
[1]; 31 g ai/ha
  pest or weed control at 31 g/ha: 5%
[1]; 62 g ai/ha
  pest or weed control at 62 g/ha: 5%
[1]; 125 g ai/ha
  pest or weed control at 125 g/ha: 15%
[2]; 16 g ai/ha
  pest or weed control at 16 g/ha: 85%
[2]; 31 g ai/ha
  pest or weed control at 31 g/ha: 90%
[2]; 62 g ai/ha
  pest or weed control at 62 g/ha: 90%
[2]; 125 g ai/ha
  pest or weed control at 125 g/ha: 98%
[3]; 31 g ai/ha
  plant injury at 31 g/ha: 65%
[3]; 62 g ai/ha
  plant injury at 62 g/ha: 95%
[3]; 125 g ai/ha
  plant injury at 125 g/ha: 95%
[4]; 31 g ai/ha
  plant injury at 31 g/ha: 55%
[4]; 62 g ai/ha
  plant injury at 62 g/ha: 60%
[4]; 125 g ai/ha
  plant injury at 125 g/ha: 80%
[5]; 31 g ai/ha
  pest or weed control at 31 g/ha: 75%
[5]; 62 g ai/ha
  pest or weed control at 62 g/ha: 85%
[5]; 125 g ai/ha
  pest or weed control at 125 g/ha: 95%
[6]; 16 g ai/ha
  pest or weed control at 16 g/ha: 5%
[6]; 31 g ai/ha
  pest or weed control at 31 g/ha: 5%
[6]; 62 g ai/ha
  pest or weed control at 62 g/ha: 5%
[6]; 125 g ai/ha
  pest or weed control at 125 g/ha: 5%
[7]; 16 g ai/ha
  pest or weed control at 16 g/ha: 5%
[7]; 31 g ai/ha
  pest or weed control at 31 g/ha: 5%
[7]; 62 g ai/ha
  pest or weed control at 62 g/ha: 20%
[7]; 125 g ai/ha
  pest or weed control at 125 g/ha: 20%
[8]; 31 g ai/ha
  pest or weed control at 31 g/ha: 60%
[8]; 62 g ai/ha
  pest or weed control at 62 g/ha: 50%
[8]; 125 g ai/ha
  pest or weed control at 125 g/ha: 65%
[9]; 31 g ai/ha
  plant injury at 31 g/ha: 0%
[9]; 62 g ai/ha
  plant injury at 62 g/ha: 0%
[9]; 125 g ai/ha
  plant injury at 125 g/ha: 5%
[10]; 31 g ai/ha
  pest or weed control at 31 g/ha: 30%
[10]; 62 g ai/ha
  pest or weed control at 62 g/ha: 60%
[10]; 125 g ai/ha
  pest or weed control at 125 g/ha: 95%
[11]; 31 g ai/ha
  pest or weed control at 31 g/ha: 50%
[11]; 62 g ai/ha
  pest or weed control at 62 g/ha: 65%
[11]; 125 g ai/ha
  pest or weed control at 125 g/ha: 70%
[12]; 16 g ai/ha
  pest or weed control at 16 g/ha: 5%
[12]; 31 g ai/ha
  pest or weed control at 31 g/ha: 5%
[12]; 62 g ai/ha
  pest or weed control at 62 g/ha: 5%
[12]; 125 g ai/ha
  pest or weed control at 125 g/ha: 5%
[13]; 16 g ai/ha
  Corn plant response rating (crop injury, 0 = no effect, 100 = complete kill) at 16 g/ha: 0%
[13]; 31 g ai/ha
  Corn plant response rating (crop injury, 0 = no effect, 100 = complete kill) at 31 g/ha: 5%
[13]; 62 g ai/ha
  Corn plant response rating (crop injury, 0 = no effect, 100 = complete kill) at 62 g/ha: 5%
[13]; 125 g ai/ha
  Corn plant response rating (crop injury, 0 = no effect, 100 = complete kill) at 125 g/ha: 5%
[14]; 16 g ai/ha
  pest or weed control at 16 g/ha: 5%
[14]; 31 g ai/ha
  pest or weed control at 31 g/ha: 5%
[14]; 62 g ai/ha
  pest or weed control at 62 g/ha: 20%
[14]; 125 g ai/ha
  pest or weed control at 125 g/ha: 70%
[15]; 16 g ai/ha
  pest or weed control at 16 g/ha: 50%
[15]; 31 g ai/ha
  pest or weed control at 31 g/ha: 50%
[15]; 62 g ai/ha
  pest or weed control at 62 g/ha: 60%
[15]; 125 g ai/ha
  pest or weed control at 125 g/ha: 100%
[16]; 16 g ai/ha
  pest or weed control at 16 g/ha: 70%
[16]; 31 g ai/ha
  pest or weed control at 31 g/ha: 80%
[16]; 62 g ai/ha
  pest or weed control at 62 g/ha: 85%
[16]; 125 g ai/ha
  pest or weed control at 125 g/ha: 90%
[17]; 31 g ai/ha
  pest or weed control at 31 g/ha: 5%
[17]; 62 g ai/ha
  pest or weed control at 62 g/ha: 5%
[17]; 125 g ai/ha
  pest or weed control at 125 g/ha: 5%
[18]; 16 g ai/ha
  pest or weed control at 16 g/ha: 15%
[18]; 31 g ai/ha
  pest or weed control at 31 g/ha: 70%
[18]; 62 g ai/ha
  pest or weed control at 62 g/ha: 98%
[18]; 125 g ai/ha
  pest or weed control at 125 g/ha: 90%
[19]; 31 g ai/ha
  pest or weed control at 31 g/ha: 65%
[19]; 62 g ai/ha
  pest or weed control at 62 g/ha: 70%
[19]; 125 g ai/ha
  pest or weed control at 125 g/ha: 98%
[20]; 31 g ai/ha, preemergence
  pest or weed control at 31 g/ha: 100%
[20]; 62 g ai/ha, preemergence
  pest or weed control at 62 g/ha: 100%
[20]; 125 g ai/ha, preemergence
  pest or weed control at 125 g/ha: 100%
[20]; Preemergence, 16 g ai/ha
  pest or weed control at 16 g/ha: 100%
[21]; 31 g ai/ha, preemergence
  pest or weed control at 31 g/ha: 50%
[21]; 62 g ai/ha, preemergence
  pest or weed control at 62 g/ha: 85%
[21]; 125 g ai/ha, preemergence
  pest or weed control at 125 g/ha: 98%
[21]; Preemergence, 16 g ai/ha
  pest or weed control at 16 g/ha: 5%
[22]; 31 g ai/ha, preemergence
  pest or weed control at 31 g/ha: 80%
[22]; 62 g ai/ha, preemergence
  pest or weed control at 62 g/ha: 85%
[22]; 125 g ai/ha, preemergence
  pest or weed control at 125 g/ha: 98%
[22]; Preemergence, 16 g ai/ha
  pest or weed control at 16 g/ha: 70%
